Measured values reported in patent US7300946B2, “N-(substituted arylmethyl)-4-(disubstituted methyl) piperidines and pyridines” (Bayer CropScience AG, priority 2002, dated 2007).

System: tobacco budworm (Heliothis virescens [Fabricius])
Experiment: surface-treated diet test against the tobacco budworm
Assay type: in vivo
Conditions: tobacco budworm second instar larvae, 0.25 millimoles of candidate insecticide on the surface of the diet, five-day exposure; for Percent Mortality: compared to total number of insects infested; for Percent Growth Inhibition: inhibition of insect weight relative to untreated controls
Description: Candidate insecticides were evaluated for activity against the tobacco budworm (Heliothis virescens [Fabricius]) in a surface-treated diet test.
In this test one mL of molten (65–70° C.) wheat germ-based artificial diet was pipetted into each well of a four by six (24 well) multi-well plate (ID# 430345-15.5 mm dia.×17.6 mm deep; Corning Costar Corp., One Alewife Center, Cambridge, Mass. 02140). The diet was allowed to cool to ambient temperature before treatment with candidate insecticide.
For a determination of insecticidal activity, solutions of the candidate insecticides were prepared for testing using a Packard 204DT Multiprobe® Robotic System (Packard Instrument Company, 800 Research Parkway, Meriden, Conn. 06450), in which the robot first diluted a standard 50 millimolar DMSO solution of candidate insecticide with a 1:1 water/acetone solution (V/V) in a ratio of 1:7 stock solution to water/acetone. The robot subsequently pipetted 40 microliters of the so-prepared solution onto the surface of the diet in each of three wells in the 24 multi-well plate. The process was repeated with solutions of seven other candidate insecticides. Once treated, the contents of the multi-well plate were allowed to dry, leaving 0.25 millimoles of candidate insecticide on the surface of the diet, or a concentration of 0.25 millimolar. Appropriate untreated controls containing only DMSO on the diet surface were also included in this test. […]
In each well of the test plate was placed one second instar tobacco budworm larvea, each weighing approximately five milligrams. After the larvae were placed in each well, the plate was sealed with clear polyfilm adhesive tape. The tape over each well was perforated to ensure an adequate air supply. The plates were then held in a growth chamber at 25° C. and 60% relative humidity for five days (light 14 hours/day).
After the five-day exposure period insecticidal activity for each rate of application of candidate insecticide was assessed as percent inhibition of insect weight relative to the weight of insects from untreated controls, and percent mortality when compared to the total number of insects infested.
The test compounds of formula I are identified by numbers that correspond to those in Table 1.
These tests were conducted with 0.25 millimoles of candidate insecticide on the surface of the diet.

SMILES | Percent Mortality (surface-treated diet) | Percent Growth Inhibition (surface-treated diet) | Percent Mortality | Percent Growth Inhibition
O=C(Nc1ccccn1)OC(c1ccc(C(F)(F)F)cc1)C1CCN(Cc2ccc(Oc3ccccn3)cc2)CC1 (centres unmarked) [Compound 436] | 50% | 100% |  | 
CCON=Cc1ccc(CN2CCC(C(OC(=O)Nc3ccc(Cl)cc3)c3cc(Cl)cc(Cl)c3)CC2)cc1 (centres unmarked) [Compound 532] | 100% | 100% |  | 
CCn1nnc(-c2ccc(CN3CCC(C(OC(=O)Nc4ccc(-c5ccccc5)cc4)c4ccc(C(F)(F)F)cc4)CC3)cc2)n1 (centres unmarked) [Compound 297] | 100% | 100% |  | 
O=C(Nc1cc(F)cc(F)c1)OC(c1ccc(Cl)c(Cl)c1)C1CCN(Cc2ccc(Oc3ccccn3)cc2)CC1 (centres unmarked) [Compound 647] | 100% | 100% |  | 
O=C(Nc1cc(F)cc(F)c1)OC(c1ccc(OC(F)(F)F)cc1)C1CCN(Cc2ccc(Oc3ncccn3)cc2)CC1 (centres unmarked) [Compound 735] |  |  | 100% | 100%
CCON=Cc1ccc(CN2CCC(C(OC(=O)Nc3cccc(Cl)c3Cl)c3ccc(C(F)(F)F)cc3)CC2)cc1 (centres unmarked) [Compound 188] | 100% | 100% |  | 
CCCOc1ccc(CN2CCC(C(OC(=O)Nc3ccc(Cl)cc3)c3ccc(Cl)cc3)CC2)cc1 (centres unmarked) [Compound 470] | 100% | 100% |  | 
CCCOc1ccc(CN2CCC(=C(c3ccc(OC(F)(F)F)cc3)c3ccc(OC(F)(F)F)cc3)CC2)cc1 [Compound 48] | 100% | 100% |  | 
CCn1nnc(-c2ccc(CN3CCC(C(OC(=O)Nc4ccc(Cl)cc4)c4cc(Cl)cc(Cl)c4)CC3)cc2)n1 (centres unmarked) [Compound 577] | 100% | 100% |  | 
Cn1nnc(-c2ccc(CN3CCC(C(Oc4ccc(C(F)(F)F)cn4)c4ccc(OC(F)(F)F)cc4)CC3)cc2)n1 (centres unmarked) [Compound 434, 2-[(1-{[4-(2-methyl(1,2,3,4-tetraazol-5-yl))phenyl]methyl}(4-piperidyl))[4-(trifluoromethoxy)phenyl]methoxy]-5-(trifluoromethyl)pyridine] | 100% | 100% |  | 
CCn1nnc(-c2ccc(CN3CCC(C(OC(=O)Nc4cc(F)cc(F)c4)c4ccc(F)c(F)c4)CC3)cc2)n1 (centres unmarked) [Compound 589] | 100% | 100% |  | 
Cn1nnc(-c2ccc(CN3CCC(C(NC(=O)c4ccccc4Cl)c4ccc(OC(F)(F)F)cc4)CC3)cc2)n1 (centres unmarked) [Compound 322] | 0% | 78% |  | 
CCCOc1ccc(CN2CCC(C(OC(=O)Nc3cccc(C(F)(F)F)c3)c3cccc(C(F)(F)F)c3)CC2)cc1 (centres unmarked) [Compound 488] | 100% | 100% |  | 
CC(C)OC(=O)Nc1ccc(CN2CCC(C(OC(=O)Nc3cc(F)cc(F)c3)c3ccc(Cl)cc3)CC2)cc1 (centres unmarked) [Compound 502] | 100% | 100% |  | 
O=C(Nc1cc(F)cc(F)c1)OC(c1ccc(C(F)(F)F)cc1)C1CCN(Cc2ccc(Oc3cc(C(F)(F)F)ccn3)cc2)CC1 (centres unmarked) [Compound 690] | 100% | 100% |  | 
Cn1nnc(-c2ccc(CN3CCC(C(NCc4ccc(Cl)cc4)c4ccc(OC(F)(F)F)cc4)CC3)cc2)n1 (centres unmarked) [Compound 311] | 100% | 100% |  | 
CCOC(=O)CNC(=O)OC(c1ccc(C(F)(F)F)cc1)C1CCN(Cc2ccc(Oc3ccccn3)cc2)CC1 (centres unmarked) [Compound 783] |  |  | 0% | 70%
O=C(Nc1ccc(Cl)cc1)OC(c1ccc(Cl)cc1)C1CCN(Cc2ccc(Oc3ccccn3)cc2)CC1 (centres unmarked) [Compound 629] | 100% | 100% |  | 
CCn1nnc(-c2ccc(CN3CCC(C(OC(=O)Nc4ccc(Cl)c(Cl)c4)c4ccccc4Cl)CC3)cc2)n1 (centres unmarked) [Compound 568] | 100% | 100% |  | 
CCn1nnc(-c2ccc(CN3CCC(=C(c4ccc(F)cc4)c4ccc(Cl)cc4)CC3)cc2)n1 [Compound 79] | 83% | 100% |  | 
CC(C)OC(=O)c1ccc(CN2CCC(C(OC(=O)Nc3ccc(Cl)cc3)c3ccc(C(F)(F)F)cc3)CC2)cc1 (centres unmarked) [Compound 492] | 100% | 100% |  | 

SMILES | Percent Mortality (surface-treated diet) | Percent Growth Inhibition (surface-treated diet) | Percent Mortality | Percent Growth Inhibition
O=C(Nc1cc(F)cc(F)c1)OC(c1ccc(C(F)(F)F)cc1)C1CCN(Cc2ccc(Oc3ccccc3F)cc2)CC1 (centres unmarked) [Compound 547] | 100% | 100% |  | 
O=C(Nc1ccc(F)cc1)Oc1ccc(CN2CCC(C(OC(=O)Nc3ccc(F)cc3)c3ccc(OC(F)(F)F)cc3)CC2)cc1 (centres unmarked) [Compound 181] | 100% | 100% |  | 
Clc1ccc(C(=C2CCN(Cc3ccc(Oc4ccccn4)cc3)CC2)c2ccc(Cl)cc2)cc1 [Compound 809] |  |  | 100% | 100%
O=C(Nc1ccc(OC(F)F)cc1)OC(c1ccc(C(F)(F)F)cc1)C1CCN(Cc2ccc(Oc3ccccn3)cc2)CC1 (centres unmarked) [Compound 701] |  |  | 100% | 100%
[O-][N+]1(Cc2ccc(Oc3ccccn3)cc2)CCC(=C(c2ccc(C(F)(F)F)cc2)c2ccc(C(F)(F)F)cc2)CC1 (centres unmarked) [Compound 106] | 100% | 100% |  | 
FC(F)(F)c1ccc(C(=C2CCN(Cc3ccc(Oc4ccc(Cl)nn4)cc3)CC2)c2ccc(C(F)(F)F)cc2)cc1 [Compound 826] |  |  | 100% | 100%
CCCOc1ccc(CN2CCC(=C(c3ccc(O)cc3)c3ccc(O)cc3)CC2)cc1 [Compound 44] | 67% | 100% |  | 
O=C(Nc1cc(F)cc(F)c1)OC(c1ccc(C(F)(F)F)cc1)C1CC[N+]([O-])(Cc2ccc(Oc3ccccc3F)cc2)CC1 (centres unmarked) [Compound 750] |  |  | 100% | 100%
CCON=Cc1ccc(CN2CCC(=C(c3ccc(C(F)(F)F)cc3)c3ccc(C(F)(F)F)cc3)CC2)cc1 [Compound 60] | 100% | 100% |  | 
CCn1nnc(-c2ccc(CN3CCC(C(OC(=O)Nc4ccc(Cl)c(Cl)c4)c4ccc(OC)cc4)CC3)cc2)n1 (centres unmarked) [Compound 602] | 100% | 100% |  | 
[O-][N+]1(Cc2ccc(Nc3ccccn3)cc2)CCC(=C(c2ccc(C(F)(F)F)cc2)c2ccc(C(F)(F)F)cc2)CC1 (centres unmarked) [Compound 843] |  |  | 100% | 100%
CC(C)OC(=O)c1ccc(C[N+]2([O-])CCC(=C(c3ccc(C(F)(F)F)cc3)c3ccc(C(F)(F)F)cc3)CC2)cc1 (centres unmarked) [Compound 100] | 100% | 100% |  | 
[O-][N+]1(Cc2ccc(-c3ccccn3)cc2)CCC(=C(c2ccc(C(F)(F)F)cc2)c2ccc(C(F)(F)F)cc2)CC1 (centres unmarked) [Compound 840] |  |  | 100% | 100%
Cn1nnc(-c2ccc(CN3CCC(C(NC(=O)c4ccc(F)cc4)c4ccc(OC(F)(F)F)cc4)CC3)cc2)n1 (centres unmarked) [Compound 328] | 0% | 95% |  | 
CCn1nnc(-c2ccc(CN3CCC(C(OC(=O)Nc4cc(C(F)(F)F)cc(C(F)(F)F)c4)c4ccc(C(F)(F)F)cc4)CC3)cc2)n1 (centres unmarked) [Compound 293] | 17% | 93% |  | 
Cn1nnc(-c2ccc(CN3CCC(C(NC(=O)Nc4cccc(F)c4)c4ccc(OC(F)(F)F)cc4)CC3)cc2)n1 (centres unmarked) [Compound 339] | 50% | 100% |  | 
CCn1nnc(-c2ccc(CN3CCC(C(OC(=O)Nc4ccc(OC(F)(F)F)cc4)c4ccc(OC(F)(F)F)cc4)CC3)cc2)n1 (centres unmarked) [Compound 295] | 100% | 92% |  | 
CCNC(=S)Nc1ccc(CN2CCC(C(OC(=O)Nc3cc(F)cc(F)c3)c3ccc(C(F)(F)F)cc3)CC2)cc1 (centres unmarked) [Compound 518] | 17% | 96% |  | 
COc1cccc(NC(=O)OC(c2ccc(Cl)c(Cl)c2)C2CCN(Cc3ccc(Oc4ccccn4)cc3)CC2)c1 (centres unmarked) [Compound 648] |  | 100% |  | 
CCn1nnc(-c2ccc(CN3CCC(=C(c4ccc(Cl)cc4)c4ccc(Cl)cc4)CC3)cc2)n1 [Compound 77] | 100% | 100% |  | 
CC(C)OC(=O)Nc1ccc(CN2CCC(C(OC(=O)Nc3cccc(F)c3)c3ccc(F)cc3)CC2)cc1 (centres unmarked) [Compound 504] | 100% | 100% |  | 
